{"source": "patent US20220323439A1", "about": "“URACIL DERMAL PHARMACEUTICAL FORMULATION” (NANOMETICS LLC (D.B.A PHD BIOSCIENCES), priority 2019, published 2022)", "origin": "cited, not measured here", "settings": "oral uracil 500 mg/m^2", "data": [{"molecule": "O=c1cc[nH]c(=O)[nH]1", "note": "[uracil, Uracil]", "values": [{"measurement": "Cmax of uracil after oral administration", "result": 20000, "unit": "ng/mL"}]}]}
